# Source: patent US12338256B2, “Aza-tetracyclic oxazepine compounds and uses thereof” (Genentech, Inc., priority 2022, dated 2025)
# Legend:
# [1] = tested on: HPAC (homozygous mutant KRAS G12D human pancreatic cell line); experiment: KRAS 3D-Cell Proliferation Assay, HPAC (Example 503); type: cell-based; settings: Homo sapiens, HPAC, 168 h, HPAC 3D culture, 7 days, CellTiter-Glo 3D; read-out: Prolif HPAC 3D ATP IC50
# Protocol: (§1) Example 503: KRAS 3D-Cell Proliferation Assays. Cellular potencies of compounds are assessed by evaluating inhibition of proliferation in 3D cultures of homozygous mutant KRAS G12D human pancreatic cell lines (AsPC-1 and HPAC) as compared to a KRAS wild type human lung adenocarcinoma cell line (PC-9 and/or H1975). Cells are seeded into 384-well black round-bottom, ultra-low attachment assay plates in 50 uL cell growth medium (RPMI-1640 with 10% fetal bovine serum and 2 mM L-glutamine). After overnight incubation at 37° C. and 5% CO2, compounds solubilized in DMSO are added as dilution series to the wells in a total volume of 150 nL (0.3% DMSO final). The cells are incubated for 7 days at 37° C. and 5% CO2. Cell proliferation is quantitated by addition of 40 uL/well of CellTiter-GloÒ 3D (Promega), and the well contents are mixed 20× at high speed using liquid handling automation workstation (Bravo with 384-well head) and centrifuged at 1500 rpm for 2 minutes to eliminate bubbles. This reagent in combination with mechanical disruption releases the cellular ATP to promote activity in a luciferase-based enzyme/substrate chemiluminescent detection system. After a 30-minute incubation under ambient conditions with shaking and an additional 10 minutes without shaking, the luminescence is read on a plate reader (e.g., EnVision [PerkinElmer]). The results are normalized to percent inhibition based on the following control samples: DMSO (0% inhibition) and 1 μM staurosporine (100% inhibition). The normalized luminescence results are plotted against compound concentration, and the data are fit to a 4-parameter Hill equation to determine the IC50 values.
# [2] = tested on: H1975 (KRAS wild type human lung adenocarcinoma cell line); experiment: KRAS 3D-Cell Proliferation Assay, H1975 (Example 503); type: cell-based; settings: Homo sapiens, NCI-H1975, 168 h, H1975 3D culture, 7 days, CellTiter-Glo 3D; read-out: Prolif H1975 3D ATP IC50
# Protocol: as §1
SMILES,IC50 [1],IC50 [2]
"Cc1c(F)c(N)cc(-c2nc3c4c(nc(OCC56CCN5CC(F)(F)C6)nc4c2F)N2C[C@H]4CC[C@H](N4)[C@H]2[C@H](C(F)(F)F)O3)c1C(F)(F)F (mixture of isomers) [Compound 244, 5-((5R,5aS,6S,9R)-12-((3,3-Difluoro-1-azabicyclo[3.2.0]heptan-5-yl)methoxy)-1-fluoro-5-(trifluoromethyl)-5a,6,7,8,9,10-hexahydro-5H-4-oxa-3,10a,11,13,14-pentaaza-6,9-methanonaphtho[1,8-ab]heptalene-2-yl)-2-fluoro-3-methyl-4-(trifluoromethyl)aniline]",0.00614 µM,0.258 µM
"C[C@@H]1Oc2nc(-c3c(C#N)c(N)c(F)c(F)c3C(F)(F)F)c(F)c3nc(OC[C@@]45CCCN4C[C@H](F)C5)nc(c23)N2C[C@H]3CC[C@H](N3)[C@@H]12 [Compound 107, 2-Amino-3,4-difluoro-6-((5S,5aS,6S,9R)-1-fluoro-12-(((2R,7aS)-2-fluorotetrahydro-1H-pyrrolizin-7a(5H)-yl)methoxy)-5-methyl-5a,6,7,8,9,10-hexahydro-5H-4-oxa-3,10a,11,13,14-pentaaza-6,9-methanonaphtho[1,8-ab]heptalen-2-yl)-5-(trifluoromethyl)benzonitrile]",0.0435 µM,4.87 µM
"Cc1c(F)c(N)cc(-c2nc3c4c(nc(OC[C@@]56CCCN5C[C@H](F)C6)nc4c2F)N2C[C@H]4CC[C@H](N4)[C@H]2C(CF)O3)c1C(F)(F)F (stereo partly drawn) [Compound 239, 2-Fluoro-5-((5aS,6S,9R)-1-fluoro-5-(fluoromethyl)-12-(((2R,7aS)-2-fluorotetrahydro-1H-pyrrolizin-7a(5H)-yl)methoxy)-5a,6,7,8,9,10-hexahydro-5H-4-oxa-3,10a,11,13,14-pentaaza-6,9-methanonaphtho[1,8-ab]heptalen-2-yl)-3-methyl-4-(trifluoromethyl)aniline]",0.0334 µM,0.569 µM
"Cc1cc(N)c(F)c(-c2nc3c4c(nc(OC[C@@]56CCCN5C[C@H](F)C6)nc4c2F)N2C[C@H]4CC[C@H](N4)[C@H]2[C@H](C)O3)c1I [Compound 108, 2-Fluoro-3-((5S,5aS,6S,9R)-1-fluoro-12-(((2R,7aS)-2-fluorotetrahydro-1H-pyrrolizin-7a(5H)-yl)methoxy)-5-methyl-5a,6,7,8,9,10-hexahydro-5H-4-oxa-3,10a,11,13,14-pentaaza-6,9-methanonaphtho[1,8-ab]heptalen-2-yl)-4-iodo-5-methylaniline]",0.00285 µM,0.772 µM
"Cc1nc(N)cc(-c2nc3c4c(nc(OC[C@@]56CCCN5C[C@H](F)C6)nc4c2F)N2C[C@H]4CC[C@H](N4)[C@H]2[C@H](C)O3)c1OC(F)F [Compound 188, 5-(Difluoromethoxy)-4-((5S,5aS,6S,9R)-1-fluoro-12-(((2R,7aS)-2-fluorotetrahydro-1H-pyrrolizin-7a(5H)-yl)methoxy)-5-methyl-5a,6,7,8,9,10-hexahydro-5H-4-oxa-3,10a,11,13,14-pentaaza-6,9-methanonaphtho[1,8-ab]heptalene-2-yl)-6-methylpyridin-2-amine]",0.066 µM,10.1 µM
"Cc1c(F)c(N)c(F)c(-c2nc3c4c(nc(OC[C@@]56CCCN5C/C(=C\F)C6)nc4c2F)N2C[C@H]4CC[C@H](N4)[C@H]2[C@H](C)O3)c1C(F)(F)F [Compound 229, 2,6-Difluoro-3-((5S,5aS,6S,9R)-1-fluoro-12-(((S,Z)-2-(fluoromethylene)tetrahydro-1H-pyrrolizin-7a(5H)-yl)methoxy)-5-methyl-5a,6,7,8,9,10-hexahydro-5H-4-oxa-3,10a,11,13,14-pentaaza-6,9-methanonaphtho[1,8-ab]heptalene-2-yl)-5-methyl-4-(trifluoromethyl)aniline]",0.00182 µM,0.639 µM
"Cc1c(F)c(N)cc(-c2nc3c4c(nc(OCC5(CN6CCO[C@@H](CF)C6)CC5)nc4c2F)N2C[C@H]4CC[C@H](N4)[C@H]2[C@H](C)O3)c1C(F)(F)F [Compound 172, 2-Fluoro-5-((5S,5aS,6S,9R)-1-fluoro-12-((1-(((R)-2-(fluoromethyl)morpholino)methyl)cyclopropyl)methoxy)-5-methyl-5a,6,7,8,9,10-hexahydro-5H-4-oxa-3,10a,11,13,14-pentaaza-6,9-methanonaphtho[1,8-ab]heptalen-2-yl)-3-methyl-4-(trifluoromethyl)aniline]",0.00172 µM,0.864 µM
"Cc1cc(N)c(F)c(-c2nc3c4c(nc(OC[C@@]56CCCN5CC5(CC5(F)F)C6)nc4c2F)N2C[C@H]4CC[C@H](N4)[C@H]2[C@H](C)O3)c1C(F)(F)F (stereo partly drawn) [Compound 227, 3-((5S,5aS,6S,9R)-12-(((7a′S)-2,2-Difluorodihydro-1′H,3′H-spiro[cyclopropane-1,2′-pyrrolizin]-7a′(5′H)-yl)methoxy)-1-fluoro-5-methyl-5a,6,7,8,9,10-hexahydro-5H-4-oxa-3,10a,11,13,14-pentaaza[6,9]methanonaphtho[1,8-ab]heptalene-2-yl)-2-fluoro-5-methyl-4-(trifluoromethyl)aniline]",0.000516 µM,0.679 µM
"Cc1c(F)ccc(-c2nc3c4c(nc(OC[C@@]56CCCN5C[C@H](F)C6)nc4c2F)N2C[C@H]4CC[C@H](N4)[C@H]2[C@H](C)O3)c1C(F)(F)F [Compound 203, (5S,5aS,6S,9R)-1-fluoro-2-(4-fluoro-3-methyl-2-(trifluoromethyl)phenyl)-12-(((2R,7aS)-2-fluorotetrahydro-1H-pyrrolizin-7a(5H)-yl)methoxy)-5-methyl-5a,6,7,8,9,10-hexahydro-5H-4-oxa-3,10a,11,13,14-pentaaza-6,9-methanonaphtho[1,8-ab]heptalene]",0.52 µM,20 µM
"Cc1c(F)c(N)cc(-c2nc3c4c(nc(OC[C@@H]5CC[C@H]6COCCN65)nc4c2F)N2C[C@H]4CC[C@H](N4)[C@H]2[C@H](C)O3)c1Cl [Compound 111, 4-Chloro-2-fluoro-5-((5S,5aS,6S,9R)-1-fluoro-12-(((6S,8aS)-hexahydro-1H-pyrrolo[2,1-c][1,4]oxazin-6-yl)methoxy)-5-methyl-5a,6,7,8,9,10-hexahydro-5H-4-oxa-3,10a,11,13,14-pentaaza-6,9-methanonaphtho[1,8-ab]heptalen-2-yl)-3-methylaniline]",0.0141 µM,1.84 µM
"C[C@@H]1Oc2nc(-c3cc(N)c(F)cc3C(C)(F)F)c(F)c3nc(OC[C@@]45CCCN4C[C@H](F)C5)nc(c23)N2C[C@H]3CC[C@H](N3)[C@@H]12 [Compound 73, 4-(1,1-difluoroethyl)-2-fluoro-5-((5S,5aS,6S,9R)-1-fluoro-12-(((2R,7aS)-2-fluorotetrahydro-1H-pyrrolizin-7a(5H)-yl)methoxy)-5-methyl-5a,6,7,8,9,10-hexahydro-5H-4-oxa-3,10a,11,13,14-pentaaza-6,9-methanonaphtho[1,8-ab]heptalen-2-yl)aniline]",0.0163 µM,4.09 µM
"Cc1nc(N)cc(-c2nc3c4c(nc(OCC56CCN5CC(F)(F)C6)nc4c2F)N2C[C@H]4CC[C@H](N4)[C@H]2[C@H](C(F)(F)F)O3)c1C(F)(F)F (single isomer, unassigned) [252 (isomer 2)]",0.119 µM,20 µM
"Cc1nc(N)cc(-c2nc3c4c(nc(OCC5(CN6CC[C@H](F)C6)CC5)nc4c2F)N2C[C@H]4CC[C@H](N4)[C@H]2[C@H](C)O3)c1C(F)(F)F [Compound 283, 4-((5S,5aS,6S,9R)-1-fluoro-12-((1-(((S)-3-fluoropyrrolidin-1-yl)methyl)cyclopropyl)methoxy)-5-methyl-5a,6,7,8,9,10-hexahydro-5H-4-oxa-3,10a,11,13,14-pentaaza-6,9-methanonaphtho[1,8-ab]heptalene-2-yl)-6-methyl-5-(trifluoromethyl)pyridin-2-amine]",0.00158 µM,0.577 µM
"CCc1c(F)c(N)cc(-c2nc3c4c(nc(OC[C@@H]5CC[C@H]6COCCN65)nc4c2F)N2C[C@H]4CC[C@H](N4)[C@H]2[C@H](C)O3)c1C(F)(F)F [Compound 232, 3-Ethyl-2-fluoro-5-((5S,5aS,6S,9R)-1-fluoro-12-(((6S,8aS)-hexahydro-1H-pyrrolo[2,1-c][1,4]oxazin-6-yl)methoxy)-5-methyl-5a,6,7,8,9,10-hexahydro-5H-4-oxa-3,10a,11,13,14-pentaaza-6,9-methanonaphtho[1,8-ab]heptalen-2-yl)-4-(trifluoromethyl)aniline]",0.077 µM,10.5 µM
"Cc1nc(N)cc(-c2nc3c4c(nc(OCC5(CN6CCOC7(CC7)C6)CC5)nc4c2F)N2C[C@H]4CC[C@H](N4)[C@H]2[C@H](C)O3)c1C(F)(F)F [Compound 212, 4-((5S,5aS,6S,9R)-12-((1-((4-Oxa-7-azaspiro[2.5]octan-7-yl)methyl)cyclopropyl)methoxy)-1-fluoro-5-methyl-5a,6,7,8,9,10-hexahydro-5H-4-oxa-3,10a,11,13,14-pentaaza[6,9]methanonaphtho[1,8-ab]heptalene-2-yl)-6-methyl-5-(trifluoromethyl)pyridin-2-amine]",0.00164 µM,0.389 µM
